The kinase profiling compilation of Christmann-Franck et al. (2016)

Key:
PDPK1 (human) [1] = molecular target: PDPK1 (human) (UniProt O15530); test: SelectScreen, TR FRET; details: compound 1.0 µM
AKT1 (human) = AKT1 (human) (UniProt P31749); test: SelectScreen, TR FRET; details: compound 1.0 µM
AURKA (human) = AURKA (human) (UniProt O14965); test: SelectScreen, TR FRET; details: compound 1.0 µM
CHEK2 (human) = CHEK2 (human) (UniProt O96017); test: SelectScreen, TR FRET; details: compound 1.0 µM
EPHA1 (human) = EPHA1 (human) (UniProt P21709); test: SelectScreen, TR FRET; details: compound 1.0 µM
FLT4 (human) = FLT4 (human) (UniProt P35916); test: SelectScreen, TR FRET; details: compound 1.0 µM
KDR (human) = KDR (human) (UniProt P35968); test: SelectScreen, TR FRET; details: compound 1.0 µM
PDGFRA (human) = PDGFRA (human) (UniProt P16234); test: SelectScreen, TR FRET; details: compound 1.0 µM
PDGFRB (human) = PDGFRB (human) (UniProt P09619); test: SelectScreen, TR FRET; details: compound 1.0 µM
CAMK1G (human) = CAMK1G (human) (UniProt Q96NX5); test: KINOMEscan competition binding; details: compound 10.0 µM
CPK1 (P.falciparum) = test: KINOMEscan competition binding; details: compound 10.0 µM
CRK2 (P.falciparum) = CRK2 (P.falciparum) (UniProt P61075); test: KINOMEscan competition binding; details: compound 10.0 µM
MAP3K12 (human) = MAP3K12 (human) (UniProt Q12852); test: KINOMEscan competition binding
MYLK3 (human) = MYLK3 (human) (UniProt Q32MK0); test: KINOMEscan competition binding
TAOK2 (human) = TAOK2 (human) (UniProt Q9UL54); test: KINOMEscan competition binding; details: compound 10.0 µM
TNK2 (human) = TNK2 (human) (UniProt Q07912); test: KINOMEscan competition binding
BMPR1A (human) = BMPR1A (human) (UniProt P36894); test: KINOMEscan competition binding; details: compound 1.0 µM
TAOK1 (human) = TAOK1 (human) (UniProt Q7L7X3); test: KINOMEscan competition binding; details: compound 1.0 µM
MAPK9 (human) = MAPK9 (human) (UniProt P45984)
PDPK1 (human) [2] = molecular target: PDPK1 (human) (UniProt O15530)
PRKACA (human) [3] = molecular target: PRKACA (human) (UniProt P17612)
CSNK1A1L (human) = CSNK1A1L (human) (UniProt Q8N752); test: KINOMEscan competition binding
PRKACA (human) [4] = molecular target: PRKACA (human) (UniProt P17612); test: KINOMEscan competition binding
SBK1 (human) = SBK1 (human) (UniProt Q52WX2); test: KINOMEscan competition binding

PDPK1 (human), sequence (O15530 whole entry, looked up): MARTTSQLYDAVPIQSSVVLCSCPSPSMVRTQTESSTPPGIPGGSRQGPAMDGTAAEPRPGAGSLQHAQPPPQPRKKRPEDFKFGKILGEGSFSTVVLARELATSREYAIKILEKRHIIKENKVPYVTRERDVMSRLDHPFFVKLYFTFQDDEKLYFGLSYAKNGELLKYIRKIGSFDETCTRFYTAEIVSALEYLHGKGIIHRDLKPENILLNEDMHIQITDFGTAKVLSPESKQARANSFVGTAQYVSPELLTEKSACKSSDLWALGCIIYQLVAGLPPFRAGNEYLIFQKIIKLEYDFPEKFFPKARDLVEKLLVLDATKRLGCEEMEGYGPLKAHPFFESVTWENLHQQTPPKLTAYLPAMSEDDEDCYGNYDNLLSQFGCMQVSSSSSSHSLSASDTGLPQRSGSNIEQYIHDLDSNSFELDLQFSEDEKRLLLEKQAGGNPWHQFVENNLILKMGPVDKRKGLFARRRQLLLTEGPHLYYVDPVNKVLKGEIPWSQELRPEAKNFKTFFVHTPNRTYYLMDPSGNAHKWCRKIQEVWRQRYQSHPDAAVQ
TNK2 (human), sequence (Q07912 whole entry, looked up): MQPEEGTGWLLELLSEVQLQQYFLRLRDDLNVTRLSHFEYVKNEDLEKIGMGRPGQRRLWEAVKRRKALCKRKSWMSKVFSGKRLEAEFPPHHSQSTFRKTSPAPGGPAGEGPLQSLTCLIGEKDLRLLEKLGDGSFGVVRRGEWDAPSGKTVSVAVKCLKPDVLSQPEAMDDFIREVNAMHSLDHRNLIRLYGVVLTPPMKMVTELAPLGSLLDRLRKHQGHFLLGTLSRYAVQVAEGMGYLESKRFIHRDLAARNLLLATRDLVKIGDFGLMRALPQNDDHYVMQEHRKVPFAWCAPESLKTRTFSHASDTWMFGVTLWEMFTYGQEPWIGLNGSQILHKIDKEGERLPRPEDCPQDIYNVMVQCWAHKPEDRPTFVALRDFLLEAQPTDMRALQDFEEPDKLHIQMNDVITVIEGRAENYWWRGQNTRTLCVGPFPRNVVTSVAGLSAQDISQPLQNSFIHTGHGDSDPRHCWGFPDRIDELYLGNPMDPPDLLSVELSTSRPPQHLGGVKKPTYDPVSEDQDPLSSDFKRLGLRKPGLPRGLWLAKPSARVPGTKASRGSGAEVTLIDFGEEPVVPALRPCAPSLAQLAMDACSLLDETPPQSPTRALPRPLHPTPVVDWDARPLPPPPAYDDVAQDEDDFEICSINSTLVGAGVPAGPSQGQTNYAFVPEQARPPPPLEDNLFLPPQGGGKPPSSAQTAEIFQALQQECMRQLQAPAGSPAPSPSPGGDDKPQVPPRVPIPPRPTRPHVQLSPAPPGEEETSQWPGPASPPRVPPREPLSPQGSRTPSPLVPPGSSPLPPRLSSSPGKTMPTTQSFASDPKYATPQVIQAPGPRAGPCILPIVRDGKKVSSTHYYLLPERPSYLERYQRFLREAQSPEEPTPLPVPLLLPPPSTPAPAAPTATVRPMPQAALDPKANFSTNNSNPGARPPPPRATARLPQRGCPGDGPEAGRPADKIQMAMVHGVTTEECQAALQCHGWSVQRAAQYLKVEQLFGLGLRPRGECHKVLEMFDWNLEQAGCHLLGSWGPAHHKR
MAP3K12 (human), sequence (Q12852 whole entry, looked up): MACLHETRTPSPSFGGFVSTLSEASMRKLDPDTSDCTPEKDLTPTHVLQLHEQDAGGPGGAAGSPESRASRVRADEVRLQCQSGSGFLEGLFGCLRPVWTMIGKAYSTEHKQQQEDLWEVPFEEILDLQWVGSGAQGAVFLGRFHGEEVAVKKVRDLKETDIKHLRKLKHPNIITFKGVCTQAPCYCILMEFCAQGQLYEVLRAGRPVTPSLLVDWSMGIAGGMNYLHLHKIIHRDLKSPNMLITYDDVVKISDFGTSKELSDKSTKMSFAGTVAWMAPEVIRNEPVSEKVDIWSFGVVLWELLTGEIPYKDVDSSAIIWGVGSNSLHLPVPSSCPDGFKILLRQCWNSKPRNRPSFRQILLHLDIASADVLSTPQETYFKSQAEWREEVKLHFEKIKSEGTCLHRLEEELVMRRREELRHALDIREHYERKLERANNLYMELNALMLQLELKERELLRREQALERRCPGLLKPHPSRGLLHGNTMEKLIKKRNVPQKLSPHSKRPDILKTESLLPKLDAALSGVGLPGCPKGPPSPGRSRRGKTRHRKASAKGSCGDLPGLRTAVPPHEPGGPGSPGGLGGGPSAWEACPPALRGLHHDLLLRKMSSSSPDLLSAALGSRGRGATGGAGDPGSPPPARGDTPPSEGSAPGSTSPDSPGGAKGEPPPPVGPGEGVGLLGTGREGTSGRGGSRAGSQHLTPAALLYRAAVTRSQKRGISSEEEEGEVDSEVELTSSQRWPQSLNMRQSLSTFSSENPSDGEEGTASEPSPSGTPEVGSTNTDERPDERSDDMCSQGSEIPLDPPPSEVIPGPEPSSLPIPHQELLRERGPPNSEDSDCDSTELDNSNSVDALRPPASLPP
MYLK3 (human), sequence (Q32MK0 whole entry, looked up): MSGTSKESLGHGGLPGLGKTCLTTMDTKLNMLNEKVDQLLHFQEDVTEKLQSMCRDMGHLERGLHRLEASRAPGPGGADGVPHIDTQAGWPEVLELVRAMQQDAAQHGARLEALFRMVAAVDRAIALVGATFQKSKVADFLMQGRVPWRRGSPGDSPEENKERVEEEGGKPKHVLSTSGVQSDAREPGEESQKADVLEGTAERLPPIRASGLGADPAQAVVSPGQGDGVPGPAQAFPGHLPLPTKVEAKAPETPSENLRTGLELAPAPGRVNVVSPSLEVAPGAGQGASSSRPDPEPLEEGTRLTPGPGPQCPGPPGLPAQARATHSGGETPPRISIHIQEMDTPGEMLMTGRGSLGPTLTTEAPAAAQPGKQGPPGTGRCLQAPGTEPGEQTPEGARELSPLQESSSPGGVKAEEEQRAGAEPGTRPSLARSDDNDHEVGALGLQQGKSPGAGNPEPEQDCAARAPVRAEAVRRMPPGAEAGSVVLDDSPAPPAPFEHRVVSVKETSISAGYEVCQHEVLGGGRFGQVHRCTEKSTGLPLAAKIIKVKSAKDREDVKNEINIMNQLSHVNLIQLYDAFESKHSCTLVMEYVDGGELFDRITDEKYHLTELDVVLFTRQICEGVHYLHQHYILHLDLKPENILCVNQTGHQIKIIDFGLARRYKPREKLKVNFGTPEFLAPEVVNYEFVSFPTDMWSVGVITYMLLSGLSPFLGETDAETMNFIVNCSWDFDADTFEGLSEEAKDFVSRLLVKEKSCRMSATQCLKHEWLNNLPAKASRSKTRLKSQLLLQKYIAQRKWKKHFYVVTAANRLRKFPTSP
PDGFRA (human), sequence (P16234 whole entry, looked up): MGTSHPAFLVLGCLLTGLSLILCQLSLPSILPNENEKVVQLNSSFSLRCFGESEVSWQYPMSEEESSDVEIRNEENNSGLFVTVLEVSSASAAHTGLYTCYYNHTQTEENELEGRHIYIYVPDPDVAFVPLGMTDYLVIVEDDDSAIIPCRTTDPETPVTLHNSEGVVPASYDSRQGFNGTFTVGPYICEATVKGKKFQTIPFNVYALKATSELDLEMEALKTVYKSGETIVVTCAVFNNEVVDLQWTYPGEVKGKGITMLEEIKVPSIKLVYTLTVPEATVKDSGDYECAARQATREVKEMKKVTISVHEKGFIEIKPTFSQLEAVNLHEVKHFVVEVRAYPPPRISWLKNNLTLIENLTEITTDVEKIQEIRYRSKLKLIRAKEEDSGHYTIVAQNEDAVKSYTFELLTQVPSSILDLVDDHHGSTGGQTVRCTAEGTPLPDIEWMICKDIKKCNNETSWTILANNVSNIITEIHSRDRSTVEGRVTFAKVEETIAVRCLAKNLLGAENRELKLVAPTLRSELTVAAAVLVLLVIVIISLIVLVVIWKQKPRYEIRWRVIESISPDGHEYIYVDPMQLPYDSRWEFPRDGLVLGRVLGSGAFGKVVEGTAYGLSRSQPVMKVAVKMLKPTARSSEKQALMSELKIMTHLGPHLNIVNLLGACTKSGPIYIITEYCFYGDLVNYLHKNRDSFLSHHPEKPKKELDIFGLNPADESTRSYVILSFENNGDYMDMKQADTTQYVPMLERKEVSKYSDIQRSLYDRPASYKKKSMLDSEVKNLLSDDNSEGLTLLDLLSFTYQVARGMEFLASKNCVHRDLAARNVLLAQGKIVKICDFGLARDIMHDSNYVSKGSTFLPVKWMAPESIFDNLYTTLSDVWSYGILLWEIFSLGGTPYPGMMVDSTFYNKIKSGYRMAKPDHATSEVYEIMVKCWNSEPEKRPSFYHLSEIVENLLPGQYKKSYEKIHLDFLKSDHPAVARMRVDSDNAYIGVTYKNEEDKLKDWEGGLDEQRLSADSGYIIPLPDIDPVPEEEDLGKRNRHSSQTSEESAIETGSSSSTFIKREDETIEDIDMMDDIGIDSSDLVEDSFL
CRK2 (P.falciparum), sequence (P61075 whole entry, looked up): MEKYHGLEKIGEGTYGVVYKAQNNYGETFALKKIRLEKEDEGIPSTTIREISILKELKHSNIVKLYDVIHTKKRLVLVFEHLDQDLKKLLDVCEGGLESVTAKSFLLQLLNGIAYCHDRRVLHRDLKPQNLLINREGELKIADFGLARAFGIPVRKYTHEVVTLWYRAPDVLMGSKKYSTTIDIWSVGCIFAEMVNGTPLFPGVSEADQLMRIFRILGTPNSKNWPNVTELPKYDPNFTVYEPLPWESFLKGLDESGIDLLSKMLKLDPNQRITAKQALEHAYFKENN
MAPK9 (human), sequence (P45984 whole entry, looked up): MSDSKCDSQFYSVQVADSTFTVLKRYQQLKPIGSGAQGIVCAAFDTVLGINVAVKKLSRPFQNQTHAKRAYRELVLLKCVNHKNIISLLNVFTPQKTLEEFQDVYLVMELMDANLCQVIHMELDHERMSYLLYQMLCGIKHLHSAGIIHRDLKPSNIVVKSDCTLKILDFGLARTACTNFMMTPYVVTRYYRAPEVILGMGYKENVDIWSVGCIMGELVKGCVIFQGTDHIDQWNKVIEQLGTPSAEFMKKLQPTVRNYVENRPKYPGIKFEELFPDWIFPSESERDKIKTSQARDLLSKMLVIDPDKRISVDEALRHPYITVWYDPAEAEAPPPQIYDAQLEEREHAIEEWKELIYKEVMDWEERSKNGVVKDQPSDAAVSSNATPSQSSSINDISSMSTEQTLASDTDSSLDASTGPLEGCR

For `CC(C)(O)c1ccc(-c2cnc3c(n2)N(CC2CCOCC2)CC(=O)N3)cn1`, the residual activity (PDPK1 (human) [1]) was 100%.

Compound `CC(C)(C)c1cc(NC(=O)NCc2ccc(-c3cc(NC(=O)c4ccc(OCCN5CCOCC5)cc4)[nH]n3)cc2)no1` has an inhibition (AKT1 (human)) of -17%, an inhibition (AURKA (human)) of -48% and an inhibition (CHEK2 (human)) of -10%. The inhibition (EPHA1 (human)) was -20%, the inhibition (FLT4 (human)) was -86% and the inhibition (KDR (human)) was -99%. The inhibition (PDGFRA (human)) was -85% and the inhibition (PDGFRB (human)) was -97%.

For `O=C(Nc1cccnc1)c1cc(-c2ccnc(F)c2)ccc1OCc1ccccc1`, the kinase still bound, per cent of control (CAMK1G (human)) was 100%, the kinase still bound, per cent of control (CPK1 (P.falciparum)) was 100% and the kinase still bound, per cent of control (CRK2 (P.falciparum)) was 100%. The residual activity (MAP3K12 (human); compound 10.0 µM) was 100%, the kinase still bound, per cent of control (MYLK3 (human); compound 10.0 µM) was 100% and the kinase still bound, per cent of control (TAOK2 (human)) was 100%. The kinase still bound, per cent of control (TNK2 (human); compound 10.0 µM) was 100%.

For `Nc1ccccc1Nc1ccc2c(c1)CCc1ccccc1C2=O`, the kinase still bound, per cent of control (BMPR1A (human)) was 100% and the kinase still bound, per cent of control (TAOK1 (human)) was 100%.

`Cc1c(C(=O)N2CCOc3ccc(-c4ccc(N)nc4)cc3C2)ccc(S(C)(=O)=O)c1F` was tested, and the IC50 (MAPK9 (human)) was greater than 10 µM, the IC50 (PDPK1 (human) [2]) was greater than 10 µM and the IC50 (PRKACA (human) [3]) was greater than 10 µM.

For `CO[C@@H]1[C@H](N(C)C(=O)c2ccccc2)C[C@H]2O[C@]1(C)n1c3ccccc3c3c4c(c5c6ccccc6n2c5c31)C(=O)NC4O` (some centres not stated), the Kd (CSNK1A1L (human)) was greater than 10 µM, the Kd (MAP3K12 (human)) was greater than 10 µM and the Kd (MYLK3 (human)) was greater than 10 µM. The Kd (PRKACA (human) [4]) was greater than 10 µM, the Kd (SBK1 (human)) was greater than 10 µM and the Kd (TNK2 (human)) was 0.015 µM.
